Counter-ions that a name gives are not always drawn.
Target: MRP2 (ABCC2) (Homo sapiens, UniProt Q92887)
Experiment: in vitro
[1] = probe estradiol-17-beta-glucuronide
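Also: Inside-out membrane vesicles from Sf9 insect cells expressing human MRP2, measuring uptake of the estradiol glucuronide substrate, expressed as percent of untreated control.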

Sequence of MRP2 (ABCC2) (Q92887 whole entry): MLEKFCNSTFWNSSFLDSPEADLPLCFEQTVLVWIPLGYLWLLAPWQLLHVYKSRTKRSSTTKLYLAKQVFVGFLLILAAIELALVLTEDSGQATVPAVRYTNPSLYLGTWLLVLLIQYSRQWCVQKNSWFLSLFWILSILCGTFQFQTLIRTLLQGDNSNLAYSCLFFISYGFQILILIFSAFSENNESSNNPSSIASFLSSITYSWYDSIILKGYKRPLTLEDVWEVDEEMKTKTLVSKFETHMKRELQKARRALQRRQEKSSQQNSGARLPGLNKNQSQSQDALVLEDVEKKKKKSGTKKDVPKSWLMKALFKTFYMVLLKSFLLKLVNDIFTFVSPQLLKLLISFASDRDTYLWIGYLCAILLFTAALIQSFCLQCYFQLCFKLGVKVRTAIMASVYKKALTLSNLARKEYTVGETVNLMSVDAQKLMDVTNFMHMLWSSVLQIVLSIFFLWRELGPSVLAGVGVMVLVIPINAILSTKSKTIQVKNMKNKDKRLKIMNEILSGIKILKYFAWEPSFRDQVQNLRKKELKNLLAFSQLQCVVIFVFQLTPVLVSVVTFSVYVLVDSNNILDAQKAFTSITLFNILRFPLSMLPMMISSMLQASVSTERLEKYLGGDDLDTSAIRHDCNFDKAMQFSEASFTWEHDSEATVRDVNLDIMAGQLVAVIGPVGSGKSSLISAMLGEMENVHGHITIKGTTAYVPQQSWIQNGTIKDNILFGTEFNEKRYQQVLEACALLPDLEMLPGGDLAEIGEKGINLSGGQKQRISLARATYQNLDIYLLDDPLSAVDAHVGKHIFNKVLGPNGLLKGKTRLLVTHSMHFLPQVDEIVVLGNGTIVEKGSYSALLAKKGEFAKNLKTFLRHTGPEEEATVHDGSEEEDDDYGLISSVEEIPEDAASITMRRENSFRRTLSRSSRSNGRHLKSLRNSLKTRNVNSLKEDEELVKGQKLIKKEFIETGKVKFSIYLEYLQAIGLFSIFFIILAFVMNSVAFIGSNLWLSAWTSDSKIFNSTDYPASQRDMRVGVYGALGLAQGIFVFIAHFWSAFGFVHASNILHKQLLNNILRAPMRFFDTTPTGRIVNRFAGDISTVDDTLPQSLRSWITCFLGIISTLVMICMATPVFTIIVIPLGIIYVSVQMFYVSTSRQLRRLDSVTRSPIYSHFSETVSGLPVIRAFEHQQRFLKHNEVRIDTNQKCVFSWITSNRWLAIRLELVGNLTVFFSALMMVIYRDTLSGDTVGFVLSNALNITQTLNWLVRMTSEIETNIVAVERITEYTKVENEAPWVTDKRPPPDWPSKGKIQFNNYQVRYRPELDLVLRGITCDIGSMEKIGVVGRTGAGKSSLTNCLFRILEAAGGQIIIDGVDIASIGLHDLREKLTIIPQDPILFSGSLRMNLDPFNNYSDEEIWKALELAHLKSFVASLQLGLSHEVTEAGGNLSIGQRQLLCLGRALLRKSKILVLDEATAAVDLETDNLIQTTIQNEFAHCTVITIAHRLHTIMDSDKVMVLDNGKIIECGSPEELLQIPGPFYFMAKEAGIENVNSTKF
Description: Effect on human MRP2-mediated estradiol-17-beta-glucuronide transport in Sf9 cells inverted membrane vesicles relative to control

| Compound | activity [1] | activity (sf9) |
| --- | --- | --- |
| CCC1=C(C)CN(C(=O)NCCc2ccc(S(=O)(=O)NC(=O)N[C@H]3CC[C@H](C)CC3)cc2)C1=O [GLIMEPIRIDE] | 142% |  |
| Cc1cnc(C(=O)NCCc2ccc(S(=O)(=O)NC(=O)NC3CCCCC3)cc2)cn1 [GLIPIZIDE] | 81% |  |
| N[C@@H](CCC(=O)N[C@@H](CS)C(=O)NCC(=O)O)C(=O)O [GLUTATHIONE] |  | 116% |
| COc1ccc(Cl)cc1C(=O)NCCc1ccc(S(=O)(=O)NC(=O)NC2CCCCC2)cc1 [GLYBURIDE] | 304% |  |
| CC1(C)[C@@H](O[C@H]2O[C@H](C(=O)O)[C@@H](O)[C@H](O)[C@H]2O[C@@H]2O[C@H](C(=O)O)[C@@H](O)[C@H](O)[C@H]2O)CC[C@]2(C)[C@H]3C(=O)C=C4[C@@H]5C[C@@](C)(C(=O)O)CC[C@]5(C)CC[C@@]4(C)[C@]3(C)CC[C@@H]12 [GLYCYRRHIZIN] | 5% |  |
| O=C(CCCN1CCC(O)(c2ccc(Cl)cc2)CC1)c1ccc(F)cc1 [HALOPERIDOL] | 106% |  |
| NS(=O)(=O)c1cc2c(cc1Cl)NCNS2(=O)=O [HYDROCHLOROTHIAZIDE] | 94% |  |
| C[C@]12CCC(=O)C=C1CC[C@@H]1[C@@H]2[C@@H](O)C[C@@]2(C)[C@H]1CC[C@]2(O)C(=O)CO [HYDROCORTISONE] | 124% |  |
| CC(C)Cc1ccc(C(C)C(=O)O)cc1 (centres undefined) [IBUPROFEN] | 130% |  |
| Cc1ccc(NC(=O)c2ccc(CN3CCN(C)CC3)cc2)cc1Nc1nccc(-c2cccnc2)n1 [IMATINIB MESYLATE] | 74% |  |
| CC1(C)C(/C=C/C=C/C=C/C=C2\N(CCCCS(=O)(=O)O)c3ccc4ccccc4c3C2(C)C)=[N+](CCCCS(=O)(=O)[O-])c2ccc3ccccc3c21 [INDOCYANINE GREEN] | 5% |  |
| COc1ccc2c(c1)c(CC(=O)O)c(C)n2C(=O)c1ccc(Cl)cc1 [INDOMETHACIN] | 308% |  |
| CCc1c2c(nc3ccc(OC(=O)N4CCC(N5CCCCC5)CC4)cc13)-c1cc3c(c(=O)n1C2)COC(=O)[C@]3(O)CC [IRINOTECAN] | 101% |  |
| NNC(=O)c1ccncc1 [ISONIAZID] | 96% |  |
| COC(=O)C1=C(C)NC(C)=C(C(=O)OC(C)C)C1c1cccc2nonc12 (centres undefined) [ISRADIPINE] | 46% |  |
| CC(=O)N1CCN(c2ccc(OC[C@H]3CO[C@](Cn4ccnc4)(c4ccc(Cl)cc4Cl)O3)cc2)CC1 [KETOCONAZOLE] | 76% |  |
| CC(C(=O)O)c1cccc(C(=O)c2ccccc2)c1 (centres undefined) [KETOPROFEN] | 120% |  |
| Cc1c(OCC(F)(F)F)ccnc1C[S+]([O-])c1nc2ccccc2[nH]1 (centres undefined) [LANSOPRAZOLE] | 34% |  |
| Nc1nc2c(c(=O)[nH]1)N(C=O)C(CNc1ccc(C(=O)N[C@@H](CCC(=O)O)C(=O)O)cc1)CN2 (some centres undefined) [LEUCOVORIN] | 103% |  |
| NCCCC[C@H](N[C@@H](CCc1ccccc1)C(=O)O)C(=O)N1CCC[C@H]1C(=O)O [LISINOPRIL ANHYDROUS] | 43% |  |
| CN(C)C(=O)C(CCN1CCC(O)(c2ccc(Cl)cc2)CC1)(c1ccccc1)c1ccccc1 [LOPERAMIDE] | 46% |  |
| Cc1cccc(C)c1OCC(=O)N[C@@H](Cc1ccccc1)[C@@H](O)C[C@H](Cc1ccccc1)NC(=O)[C@H](C(C)C)N1CCCNC1=O [LOPINAVIR] |  | 33% |
| CCOC(=O)N1CCC(=C2c3ccc(Cl)cc3CCc3cccnc32)CC1 [LORATADINE] | 6% |  |
| CNCCCC12CCC(c3ccccc31)c1ccccc12 [MAPROTILINE] |  | 56% |
| Nc1ccc(O)c(C(=O)O)c1 [MESALAMINE] | 109% |  |
| CN(Cc1cnc2nc(N)nc(N)c2n1)c1ccc(C(=O)N[C@@H](CCC(=O)O)C(=O)O)cc1 [METHOTREXATE] |  | 130% |
| COCCc1ccc(OCC(O)CNC(C)C)cc1 (centres undefined) [METOPROLOL] | 72% |  |

| Compound | activity [1] | activity (sf9) |
| --- | --- | --- |
| CC#C[C@]1(O)CC[C@H]2[C@@H]3CCC4=CC(=O)CCC4=C3[C@@H](c3ccc(N(C)C)cc3)C[C@@]21C [MIFEPRISTONE] | 134% |  |
| O=C1c2c(O)ccc(O)c2C(=O)c2c(NCCNCCO)ccc(NCCNCCO)c21 [MITOXANTRONE] | 175% |  |
| O=c1c(O)c(-c2ccc(O)cc2O)oc2cc(O)cc(O)c12 [MORIN] | 50% |  |
| C[C@]12CC[C@H]3[C@@H](CCC4=CC(=O)CC[C@@H]43)[C@@H]1CC[C@@H]2O [NANDROLONE] | 106% |  |
| COc1ccc2cc([C@H](C)C(=O)O)ccc2c1 [NAPROXEN] |  | 92% |
| O=C1C[C@@H](c2ccc(O)cc2)Oc2cc(O)cc(O)c21 [NARINGENIN] | 207% |  |
| Cc1ccnc2c1NC(=O)c1cccnc1N2C1CC1 [NEVIRAPINE] | 121% |  |
| COC(=O)C1=C(C)NC(C)=C(C(=O)OCCN(C)Cc2ccccc2)C1c1cccc([N+](=O)[O-])c1 (centres undefined) [NICARDIPINE] |  | 59% |
| CN1CCC[C@H]1c1cccnc1 [NICOTINE] |  | 101% |
| CNC(=O)c1cccnc1 [NICOTINYL METHYLAMIDE] | 101% |  |
| CCOC(=O)C1=C(C)NC(C)=C(C(=O)OC)C1c1cccc([N+](=O)[O-])c1 (centres undefined) [NITRENDIPINE] | 224% |  |
| O=C1CN(/N=C/c2ccc([N+](=O)[O-])o2)C(=O)N1 [NITROFURANTOIN] |  | 94% |
| CNC(=C[N+](=O)[O-])NCCSCc1csc(CN(C)C)n1 [NIZATIDINE] | 110% |  |
| COc1ccc2c(c1OC)C(=O)O[C@@H]2[C@H]1c2c(cc3c(c2OC)OCO3)CCN1C [NOSCAPINE] | 78% |  |
| CC1COc2c(N3CCN(C)CC3)c(F)cc3c(=O)c(C(=O)O)cn1c23 (centres undefined) [OFLOXACIN] | 83% |  |
| COc1ccc2[nH]c([S+]([O-])Cc3ncc(C)c(OC)c3C)nc2c1 (centres undefined) [OMEPRAZOLE] | 101% |  |
| O=C1Nc2ccc(Cl)cc2C(c2ccccc2)=NC1O (centres undefined) [OXAZEPAM] | 103% |  |
| CC1(C)S[C@@H]2[C@H](NC(=O)Cc3ccccc3)C(=O)N2[C@H]1C(=O)O [PENICILLIN G] | 76% |  |
| CCOc1ccc(NC(C)=O)cc1 [PHENACETIN] | 83% |  |
| S=C=NCCc1ccccc1 [PHENETHYLISOTHIOCYANATE] | 94% |  |
| [H]/N=C(/N)N/C(=N/[H])NCCc1ccccc1 [PHENFORMIN] | 88% |  |
| CCC1(c2ccccc2)C(=O)NC(=O)NC1=O [PHENOBARBITAL] | 98% |  |
| O=C1NC(=O)C(c2ccccc2)(c2ccccc2)N1 [PHENYTOIN] | 125% |  |
| CN1C(C(=O)Nc2ccccn2)=C(O)c2ccccc2S1(=O)=O [PIROXICAM] | 100% |  |
| CCCCOc1ccc(OCCCN2CCOCC2)cc1 [PRAMOXINE] | 69% |  |
| C[C@]12CC[C@H](OS(=O)(=O)O)CC1=CC[C@@H]1[C@@H]2CC[C@]2(C)C(=O)CC[C@@H]12 [PRASTERONE SULFURIC ACID] | 395% |  |
| CC[C@H](C)C(=O)O[C@H]1C[C@H](O)C=C2C=C[C@H](C)[C@H](CC[C@@H](O)C[C@@H](O)CC(=O)O)[C@H]21 [PRAVASTATIN] | 135% |  |

| Compound | activity [1] | activity (sf9) |
| --- | --- | --- |
| COc1cc2nc(N3CCN(C(=O)c4ccco4)CC3)nc(N)c2cc1OC [PRAZOSIN] | 78% |  |
| C[C@]12C=CC(=O)C=C1CC[C@@H]1[C@@H]2[C@@H](O)C[C@@]2(C)[C@H]1CC[C@]2(O)C(=O)CO [PREDNISOLONE] | 110% |  |
| C[C@]12C=CC(=O)C=C1CC[C@@H]1[C@@H]2C(=O)C[C@@]2(C)[C@H]1CC[C@]2(O)C(=O)CO [PREDNISONE] | 51% |  |
| CCCN(CCC)S(=O)(=O)c1ccc(C(=O)O)cc1 [PROBENECID] | 110% |  |
| O[C@](CCN1CCCC1)(c1ccccc1)C1CCCCC1 [PROCYCLIDINE] | 62% |  |
| CC(=O)[C@H]1CC[C@H]2[C@@H]3CCC4=CC(=O)CC[C@]4(C)[C@H]3CC[C@]12C [PROGESTERONE] | 123% |  |
| CCCNCC(O)COc1ccccc1C(=O)CCc1ccccc1 (centres undefined) [PROPAFENONE] |  | 58% |
| CC(C)NCC(O)COc1cccc2ccccc12 (centres undefined) [PROPRANOLOL] | 69% |  |
| O=c1c(O)c(-c2ccc(O)c(O)c2)oc2cc(O)cc(O)c12 [QUERCETIN] | 40% |  |
| C=C[C@H]1C[N@@]2CC[C@H]1C[C@@H]2[C@@H](O)c1ccnc2ccc(OC)cc12 [QUINIDINE] | 64% |  |
| C=C[C@H]1C[N@@]2CC[C@H]1C[C@H]2[C@H](O)c1ccnc2ccc(OC)cc12 [QUININE] | 75% |  |
| CNC(=C[N+](=O)[O-])NCCSCc1ccc(CN(C)C)o1 [RANITIDINE] | 52% |  |
| COC(=O)[C@H]1[C@H]2C[C@@H]3c4[nH]c5cc(OC)ccc5c4CCN3C[C@H]2C[C@@H](OC(=O)c2cc(OC)c(OC)c(OC)c2)[C@@H]1OC [RESERPINE] |  | 37% |
| Oc1ccc(/C=C/c2cc(O)cc(O)c2)cc1 [RESVERATROL] | 75% |  |
| CO[C@H]1/C=C/O[C@@]2(C)Oc3c(C)c(O)c4c(O)c(c(/C=N/N5CCN(C)CC5)c(O)c4c3C2=O)NC(=O)/C(C)=C\C=C\[C@H](C)[C@H](O)[C@@H](C)[C@@H](O)[C@@H](C)[C@H](OC(C)=O)[C@@H]1C [RIFAMPIN] | 18% |  |
| Cc1nc2sccn2c(=O)c1CCN1CCC(=C(c2ccc(F)cc2)c2ccc(F)cc2)CC1 [RITANSERIN] | 86% |  |
| C[C@@H](NCCc1ccc(O)cc1)[C@@H](O)c1ccc(O)cc1 [RITODRINE] | 113% |  |
| C=C(C)[C@H]1Cc2c(ccc3c2O[C@@H]2COc4cc(OC)c(OC)cc4[C@@H]2C3=O)O1 [ROTENONE] | 92% |  |
| C[n+]1cc2c3c(ccc2c2ccc4cc5c(cc4c21)OCO5)OCO3 [SANGUINARIUM CHLORIDE] | 44% |  |
| CC(C)[C@@H]1NC(=O)[C@H](CCCCN)NC(=O)[C@@H](Cc2c[nH]c3ccccc23)NC(=O)[C@H](Cc2ccc(O)cc2)NC(=O)[C@H](C)N(C)C(=O)[C@H](Cc2ccccc2)NC1=O [SEGLITIDE] | 94% |  |
| CCC(C)(C)C(=O)O[C@H]1C[C@@H](C)C=C2C=C[C@H](C)[C@H](CC[C@@H]3C[C@@H](O)CC(=O)O3)[C@H]21 [SIMVASTATIN] | 61% |  |
| CC(C)NCC(O)c1ccc(NS(C)(=O)=O)cc1 (centres undefined) [SOTALOL] |  | 96% |
| C[C@@H]1CN(c2c(F)c(N)c3c(=O)c(C(=O)O)cn(C4CC4)c3c2F)C[C@H](C)N1 [SPARFLOXACIN] | 138% |  |
| CC(=O)S[C@@H]1CC2=CC(=O)CC[C@]2(C)[C@H]2CC[C@@]3(C)[C@@H](CC[C@@]34CCC(=O)O4)[C@H]12 [SPIRONOLACTONE] | 125% |  |
| O=C(O)c1cc(/N=N/c2ccc(S(=O)(=O)Nc3ccccn3)cc2)ccc1O [SULFASALAZINE] | 77% |  |
